Assay results: ChEMBL document CHEMBL5620440, “Anti-trypanosomal Lignans Isolated from Salvadoran Peperomia pseudopereskiifolia” (J Nat Prod, 2024)
Active and inactive are the calls of the source. The rule behind the calls is not given here.

Tests used:
[1] = Selectivity index, ratio of CC50 for cytotoxicity for human HT-1080 cells to IC50 for antitrypanosomal activity against Trypanosoma cruzi Tulahuen infected in human HT-1080 cells; type: toxicity, cell-based; conditions: read-out: Ratio CC50/IC50
Trypanosoma cruzi [2] = test: Antitrypanosomal activity against Trypanosoma cruzi Tulahuen amastigotes infected in human HT-1080 cells assessed as reduction in parasite growth by microscopic analysis; type: functional, organism-based
[3] = Cytotoxicity against human HT-1080 cells assessed reduction in cell viability; type: toxicity, cell-based
Trypanosoma cruzi [4] = test: Potency index, ratio of benznidazole IC50 to test compound IC50 for antitrypanosomal activity against Trypanosoma cruzi Tulahuen amastigotes infected in human HT-1080 cells assessed as reduction in parasite growth by microscopic analysis; type: functional

IC50 (Trypanosoma cruzi [2]) | Structure (SMILES) | selectivity ratio [1] | CC50 [3] | Activity (Trypanosoma cruzi [2]) | Ratio IC50 (Trypanosoma cruzi [4])
0.4 µM | COc1c([C@H]2OC[C@H]3[C@H]2CO[C@@H]3c2ccc3c(c2)OCO3)ccc2c1OCO2 | > 250 | > 100 µM |  | ~3
10.5 µM | COc1ccc([C@@H](O)[C@H]2CO[C@@H](c3ccc(OC)c(OC)c3)[C@@H]2COC(C)=O)cc1OC | > 9.52 | > 100 µM |  | 
3.3 µM | CCOc1ccc([C@@H]2OC[C@H]([C@H](O)c3ccc(OC)c(OC)c3)[C@H]2COC(C)=O)cc1OC | > 30.3 | > 100 µM |  | 

Further lines, the molecule ahead of its results:

Structure (SMILES) | IC50 (Trypanosoma cruzi [2]) | selectivity ratio [1] | CC50 [3] | Activity (Trypanosoma cruzi [2]) | Ratio IC50 (Trypanosoma cruzi [4])
COc1ccc([C@@H](O)[C@H]2CO[C@@H](c3ccc(OCc4ccccc4)c(OC)c3)[C@@H]2COC(C)=O)cc1OC | 2.8 µM | > 35.7 | > 100 µM |  | 
O=C(Cn1ccnc1[N+](=O)[O-])NCc1ccccc1 [BENZNIDAZOLE] | 1.1 µM | > 90.9 | > 100 µM |  | 
COc1cc([C@@H]2OC[C@H]([C@H](O)c3ccc(OC)c(OC)c3)[C@H]2COC(C)=O)ccc1O |  |  |  | inactive | 
COc1ccc([C@@H](O)[C@H]2CO[C@@H](c3ccc(OC)c(OC)c3)[C@@H]2CO)cc1OC |  |  |  | inactive | 
CCOc1ccc([C@@H]2OC[C@H](C(=O)c3ccc(OC)c(OC)c3)[C@H]2COC(C)=O)cc1OC |  |  |  | inactive | 
COc1cc([C@@H]2OC[C@H]([C@H](O)c3ccc(OC)c(OC)c3)[C@H]2CO)ccc1O |  |  |  | inactive | 
